Several values for one entry are separate records, joined by “and”; a condition that tells them apart may be missing. Identical values can stand only once.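 How tested: cells in 96-well plates exposed to compound for 48 hours at five concentrations. Abbreviation: GI50, concentration required for 50% inhibition of growth. Definition used: TGI = concentration required for complete inhibition of growth.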
Tests used:
Assay in all cases: DTP human tumour cell line panel, 48 h
SF-268 CNS = system: SF-268 CNS
UACC-257 melanoma = system: UACC-257 melanoma
MCF7 breast = system: MCF7 breast
NCI-H460 lung = system: NCI-H460 lung
UACC-62 melanoma = system: UACC-62 melanoma
MALME-3M melanoma = system: MALME-3M melanoma
MDA-MB-435 = system: MDA-MB-435
HL-60(TB) leukemia = system: HL-60(TB) leukemia

| SMILES | GI50 (SF-268 CNS) [µM] | TGI (SF-268 CNS) [µM] | GI50 (UACC-257 melanoma) [µM] | TGI (UACC-257 melanoma) [µM] | GI50 (MCF7 breast) | TGI (MCF7 breast) [µM] | GI50 (NCI-H460 lung) [µM] | TGI (NCI-H460 lung) [µM] | GI50 (UACC-62 melanoma) [µM] | TGI (UACC-62 melanoma) [µM] | GI50 (MALME-3M melanoma) [µM] | TGI (MALME-3M melanoma) [µM] | GI50 (MDA-MB-435) | TGI (MDA-MB-435) | GI50 (HL-60(TB) leukemia) [µM] | TGI (HL-60(TB) leukemia) [µM] |
| --- | --- | --- | --- | --- | --- | --- | --- | --- | --- | --- | --- | --- | --- | --- | --- | --- |
| Nc1ccccc1C#C/C=C\C#CC#C/C=C\C#Cc1ccccc1N | 5.93 | 26.2 | 8.96 | 32.4 | 4.6 µM | > 100 | 8.32 | 25.6 | 2.18 | 13.1 | 11.7 | 67.1 | 2.85 µM | 9.72 µM | – | – |
| CCOC(=O)C(Cc1c[nH]c2cc(N(CCO)CCO)ccc12)(NC(C)=O)C(=O)OCC | 619 | > 1000 | > 1000 | > 1000 | 26.6 µM and 135 µM | 815 | 433 | > 1000 | 66.8 | > 1000 | 258 | > 1000 | 34.6 µM and 50.1 µM | 200 µM | 133 | 489 |
| Cc1c(Cl)c(=O)oc2cc(OC/C=C3\CCC(=O)O3)ccc12 | 18.8 | 64.3 | 27.2 | 99 | 13.4 µM | 37.8 | 26.9 | > 100 | 16.8 | 33.9 | 12.9 | 32.2 | 25.3 µM | 96.3 µM | – | – |
| Cc1cc(C(=O)/C=C/c2ccc[nH]2)ccc1-n1ccc(C(F)(F)F)n1 | 3.37 | > 100 | 21.9 | > 100 | 5.53 µM | > 100 | 24.3 | > 100 | 21.4 | > 100 | 7.25 | 54.7 | 35.5 µM | > 100 µM | 0.457 | > 100 |
| CC(C)(C)OC(=O)NCCCCn1c2c(c3ccccc3c1=O)C(=O)c1ccccc1-2 | 20.9 | > 100 | 29.7 | 71.1 | 21.3 µM | > 100 | 5.9 | 34.8 | 10.9 | 27.8 | 27.1 | 80.6 | 35.3 µM | > 100 µM | 4.71 | 59.4 |
| CC(C)(C)c1cc(C(=O)Nc2ccc(C(=O)NCCN)cc2)cc(C(C)(C)C)c1 | 2.03 | 5.05 | 17.7 | 37.4 | – | – | 1.93 | 3.73 | 1.86 | 3.56 | 1.43 | 3.13 | 1.52 µM | 3.09 µM | 1.9 | 3.87 |
| C=CC(COC(=O)C(C)(C)OC(C)=O)c1ccc(OC(=O)C(C)C)c(OC)c1 (stereo unspecified) | – | > 43.9 | – | 31.5 | – | > 22.8 | – | 7.78 | – | 27.8 | – | 8.78 | – | 27.8 µM | – | > 49 |
| Cc1ccc(S(=O)(=O)OCC#CCOS(=O)(=O)c2ccc(C)cc2)cc1 | 1.79 | 3.87 | 1.92 | 4.07 | 3.21 µM | 16.7 | 1.8 | 4.07 | 3.96 | 12.6 | 1.97 | 4.1 | 1.9 µM | 4.3 µM | 1.51 | 3.55 |
| CCN(CC)c1c(-c2ccccc2)n[nH]c1C(=O)OC | 22.9 | 59.7 | 12.6 | 36.5 | 23.1 µM | 54.4 | 30.3 | > 100 | 15.5 | 37.7 | 15.9 | 41.5 | 20.1 µM | 55.6 µM | 18.7 | 48.8 |
| C/C=C/C/C=C/[C@H](C)C[C@H](O)[C@@H]1C[C@@H]2O[C@H]2/C=C/[C@@H]2OC(C)(C)O[C@H]2/C=C/C[C@H](C)CC(=O)O1 | 10.4 | > 100 | 56.7 | > 100 | 25.5 µM | > 100 | 5.65 | > 100 | 4.31 | 20.2 | – | – | 24 µM | > 100 µM | 5.6 | 30.9 |
| NCCCOc1cc2ccccc2cc1C(=O)Nc1ccc(Cl)cc1OC(=O)c1cc2ccccc2cc1OCCCN | 0.922 | 2.44 | 1.01 | 2.32 | 0.173 µM | 0.332 | 0.195 | 0.345 | 1.44 | 2.85 | – | – | 0.961 µM | 3.96 µM | 0.517 | 2.37 |
| Nc1nonc1-c1nc2ccccc2n1Cc1ccc(F)cc1 | 9.61 | > 100 | > 100 | > 100 | 3.78 µM | > 100 | 4.25 | > 100 | 4.63 | > 100 | 5.09 | > 100 | 1.87 µM | 5.89 µM | – | – |
| Nc1ncnc2c1ncn2C1OC(COS(N)(=O)=O)C(O)C1O (stereo unspecified) | – | – | – | – | – | – | – | – | – | – | – | – | 0.00184 µM and 0.018 µM | 0.00356 µM and 0.0355 µM | < 0.001 | 0.00378 |
| COc1cc(-n2cc(-c3ccccc3)[nH]c2=O)cc(OC)c1OC | 28.5 | 89.7 | – | – | 44.9 µM | > 100 | 52.2 | > 100 | 36.9 | > 100 | 33.7 | > 100 | 76.3 µM | > 100 µM | 60.3 | > 100 |
| Nc1c(C(=O)Nc2ccccn2)sc2nc3c(cc12)C(O)CCC3 (stereo unspecified) | 2.94 | > 50 | > 50 | > 50 | 1.02 µM | > 50 | 1.88 | > 50 | 1.75 | > 50 | 19.3 | > 50 | – | – | 0.562 | > 50 |
| O=S(=O)(NCCNc1nccc(-c2c(-c3ccc(F)c(O)c3)nc3sccn23)n1)c1ccc(Cl)cc1 | 1.8 | 13.4 | 2.53 | > 50 | 1.52 µM | > 50 | 1.93 | > 50 | 0.967 | 13 | 1.69 | 22.7 | – | – | – | – |
